In ChEMBL document CHEMBL1201862, “PubChem BioAssay data set” (2004):
Activity calls are given as the source filed them.

Columns and labels:
Protein skinhead-1 = molecular target: T1, Protein skinhead-1 (Caenorhabditis elegans, UniProt P34707); type: functional
T1 sequence (P34707 whole entry): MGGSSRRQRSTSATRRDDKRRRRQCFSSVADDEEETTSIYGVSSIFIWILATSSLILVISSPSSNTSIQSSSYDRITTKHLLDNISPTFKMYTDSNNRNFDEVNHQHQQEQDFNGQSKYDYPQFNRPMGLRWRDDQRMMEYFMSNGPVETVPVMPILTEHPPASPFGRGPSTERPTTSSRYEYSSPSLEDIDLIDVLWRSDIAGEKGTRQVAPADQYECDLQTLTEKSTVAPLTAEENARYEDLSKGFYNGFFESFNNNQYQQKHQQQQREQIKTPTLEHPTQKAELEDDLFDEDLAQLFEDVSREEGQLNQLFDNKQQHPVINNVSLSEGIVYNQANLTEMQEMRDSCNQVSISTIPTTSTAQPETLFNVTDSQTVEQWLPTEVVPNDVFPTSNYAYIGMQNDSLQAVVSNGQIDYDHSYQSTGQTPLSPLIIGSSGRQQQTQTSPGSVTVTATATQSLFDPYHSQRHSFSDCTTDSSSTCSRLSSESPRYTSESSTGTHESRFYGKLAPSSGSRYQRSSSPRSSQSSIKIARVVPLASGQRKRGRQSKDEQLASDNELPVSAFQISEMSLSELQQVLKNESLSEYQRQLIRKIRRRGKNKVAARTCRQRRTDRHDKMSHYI

[1] = molecular target: T2, Sentrin-specific protease 7 (Homo sapiens, UniProt Q9BQF6); type: functional;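 also: Luminescence-based dose-response confirmation of ultra-high-throughput screening hits, measuring inhibition of SENP7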
T2 sequence (Q9BQF6 whole entry): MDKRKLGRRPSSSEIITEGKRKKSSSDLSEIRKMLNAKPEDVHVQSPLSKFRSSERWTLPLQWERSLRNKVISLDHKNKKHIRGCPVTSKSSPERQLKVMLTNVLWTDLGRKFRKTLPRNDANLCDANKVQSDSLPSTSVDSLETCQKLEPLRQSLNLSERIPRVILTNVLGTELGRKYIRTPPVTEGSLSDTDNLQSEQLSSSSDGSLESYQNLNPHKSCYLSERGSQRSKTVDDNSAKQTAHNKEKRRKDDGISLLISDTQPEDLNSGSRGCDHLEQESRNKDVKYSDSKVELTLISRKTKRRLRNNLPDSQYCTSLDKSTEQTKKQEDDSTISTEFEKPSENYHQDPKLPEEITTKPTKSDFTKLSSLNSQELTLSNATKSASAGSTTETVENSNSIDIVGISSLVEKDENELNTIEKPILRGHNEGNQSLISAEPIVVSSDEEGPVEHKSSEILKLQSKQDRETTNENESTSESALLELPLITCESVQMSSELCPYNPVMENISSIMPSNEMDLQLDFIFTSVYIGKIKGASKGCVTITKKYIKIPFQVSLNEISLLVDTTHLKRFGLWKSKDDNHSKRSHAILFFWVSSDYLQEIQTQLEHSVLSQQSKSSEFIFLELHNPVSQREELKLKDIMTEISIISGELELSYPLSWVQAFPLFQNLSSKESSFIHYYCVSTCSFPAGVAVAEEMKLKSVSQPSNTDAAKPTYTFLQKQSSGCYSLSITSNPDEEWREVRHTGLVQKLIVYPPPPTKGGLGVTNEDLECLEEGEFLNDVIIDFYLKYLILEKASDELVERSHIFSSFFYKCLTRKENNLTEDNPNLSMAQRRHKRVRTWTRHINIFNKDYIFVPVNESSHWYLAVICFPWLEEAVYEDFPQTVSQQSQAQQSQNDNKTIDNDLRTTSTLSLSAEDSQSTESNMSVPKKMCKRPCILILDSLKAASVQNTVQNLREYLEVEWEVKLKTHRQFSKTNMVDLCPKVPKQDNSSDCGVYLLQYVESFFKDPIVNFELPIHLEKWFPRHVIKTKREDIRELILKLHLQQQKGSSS

[2] = molecular target: T3, Sentrin-specific protease 8 (Homo sapiens, UniProt Q96LD8); type: functional;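 also: luminescence read-out of SENP8 inhibition, dose-response confirmation following an ultra-high-throughput screen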
T3 sequence (Q96LD8 whole entry): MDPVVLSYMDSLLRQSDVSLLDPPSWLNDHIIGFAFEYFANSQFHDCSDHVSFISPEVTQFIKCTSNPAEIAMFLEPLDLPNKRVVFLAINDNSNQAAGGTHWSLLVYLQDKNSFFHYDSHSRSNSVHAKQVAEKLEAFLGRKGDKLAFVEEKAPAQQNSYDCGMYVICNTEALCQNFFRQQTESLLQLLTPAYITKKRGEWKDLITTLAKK

cells = type: functional
Caspase-3 = molecular target: T4, Caspase-3 (Homo sapiens, UniProt P42574); type: functional;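 also: Dose-response selectivity test against caspase-3 for candidate inhibitors of sentrin-specific proteases (SENPs)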
T4 sequence (P42574 whole entry): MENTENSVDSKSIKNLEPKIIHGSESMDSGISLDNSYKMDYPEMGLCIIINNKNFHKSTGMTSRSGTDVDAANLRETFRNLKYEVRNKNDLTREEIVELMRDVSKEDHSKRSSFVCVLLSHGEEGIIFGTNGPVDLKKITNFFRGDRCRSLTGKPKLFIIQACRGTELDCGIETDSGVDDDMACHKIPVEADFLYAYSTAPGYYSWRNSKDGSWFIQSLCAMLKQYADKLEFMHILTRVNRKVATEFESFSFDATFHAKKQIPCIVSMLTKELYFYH

[3] = molecular target: T5, Sentrin-specific protease 6 (Homo sapiens, UniProt Q9GZR1); type: functional;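 also: Luminescence-based dose-response confirmatory assay of SENP6 inhibition, following up an ultra-high-throughput screen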
T5 sequence (Q9GZR1 whole entry): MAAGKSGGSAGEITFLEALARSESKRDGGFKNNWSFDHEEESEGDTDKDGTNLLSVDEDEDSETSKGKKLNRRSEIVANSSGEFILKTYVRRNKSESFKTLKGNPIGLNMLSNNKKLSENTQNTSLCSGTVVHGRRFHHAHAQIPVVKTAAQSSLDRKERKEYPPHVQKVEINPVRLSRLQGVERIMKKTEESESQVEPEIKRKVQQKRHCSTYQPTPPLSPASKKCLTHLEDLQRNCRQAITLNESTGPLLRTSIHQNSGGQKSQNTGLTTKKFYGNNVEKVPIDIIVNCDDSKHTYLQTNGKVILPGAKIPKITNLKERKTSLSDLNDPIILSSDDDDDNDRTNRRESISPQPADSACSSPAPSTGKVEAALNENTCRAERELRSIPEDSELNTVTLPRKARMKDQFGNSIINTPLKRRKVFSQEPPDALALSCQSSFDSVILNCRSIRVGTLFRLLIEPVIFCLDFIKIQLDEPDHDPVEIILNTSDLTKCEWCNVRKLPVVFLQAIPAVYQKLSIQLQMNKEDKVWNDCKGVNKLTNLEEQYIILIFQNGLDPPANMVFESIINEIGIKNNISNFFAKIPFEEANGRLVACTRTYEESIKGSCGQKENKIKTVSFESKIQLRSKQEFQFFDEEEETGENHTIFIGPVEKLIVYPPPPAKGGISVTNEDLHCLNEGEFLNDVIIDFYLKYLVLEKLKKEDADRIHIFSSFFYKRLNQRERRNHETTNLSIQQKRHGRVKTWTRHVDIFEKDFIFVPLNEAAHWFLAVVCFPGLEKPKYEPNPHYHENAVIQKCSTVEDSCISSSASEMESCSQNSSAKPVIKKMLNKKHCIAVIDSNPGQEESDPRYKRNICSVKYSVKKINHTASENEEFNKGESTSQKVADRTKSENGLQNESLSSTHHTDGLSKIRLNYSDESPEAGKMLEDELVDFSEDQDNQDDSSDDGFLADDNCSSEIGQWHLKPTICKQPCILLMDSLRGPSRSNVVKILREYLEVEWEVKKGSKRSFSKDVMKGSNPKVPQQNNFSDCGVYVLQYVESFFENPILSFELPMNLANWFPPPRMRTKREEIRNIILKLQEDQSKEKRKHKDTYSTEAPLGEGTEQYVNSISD

Cytochrome P450 2C9 = Cytochrome P450 2C9 (Homo sapiens, UniProt P11712)
[4] = LGR2 antagonists, dose response, cell-based, HEK293, CRE-luciferase reporter, cherry pick, set 2 (AID 743343); type: functional;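 also: transfected cells were stimulated with diluted bursicon conditioned medium after compound addition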
[5] = MC4R antagonists, dose response, counter-screen for LGR2 antagonist project, cell-based, plate reader, cherry pick (AID 743444); type: functional;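 also: transfected HEK 293 cells stimulated with alpha-MSH peptide; potency of inhibitors of the alpha-MSH evoked signal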
Cytochrome P450 2D6 = Cytochrome P450 2D6 (Homo sapiens, UniProt P10635);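 also: CYP2D6 member of a cytochrome P450 panel assay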
[6] = HepG2 cell cytotoxicity, dose response, cytotoxicity control, plate reader, cherry-pick, antagonist series (AID 743416); type: functional, cell-based
[7] = molecular target: T6, Ubiquitin-conjugating enzyme E2 N (Homo sapiens, UniProt P61088); type: functional;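 also: Dose-response confirmation in a TR-FRET assay detecting UBC13-driven polyubiquitin chain formation, inhibition measured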
T6 sequence (P61088 whole entry): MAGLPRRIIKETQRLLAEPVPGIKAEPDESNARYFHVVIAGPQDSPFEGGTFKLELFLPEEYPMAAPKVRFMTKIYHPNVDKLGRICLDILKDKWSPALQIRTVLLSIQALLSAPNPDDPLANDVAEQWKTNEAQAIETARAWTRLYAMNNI

Streptokinase A = molecular target: T7, Streptokinase A (Streptococcus pyogenes serotype M1, UniProt P10520); assay: S. pyogenes streptokinase expression inhibitors, potency, dose response, plasminogen activation absorbance, OD405 (AID 1914); type: functional, Streptococcus pyogenes M1 GAS;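 also: secreted streptokinase activity via plasminogen activation per viability signal from cell pellet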
T7 sequence (P10520 whole entry): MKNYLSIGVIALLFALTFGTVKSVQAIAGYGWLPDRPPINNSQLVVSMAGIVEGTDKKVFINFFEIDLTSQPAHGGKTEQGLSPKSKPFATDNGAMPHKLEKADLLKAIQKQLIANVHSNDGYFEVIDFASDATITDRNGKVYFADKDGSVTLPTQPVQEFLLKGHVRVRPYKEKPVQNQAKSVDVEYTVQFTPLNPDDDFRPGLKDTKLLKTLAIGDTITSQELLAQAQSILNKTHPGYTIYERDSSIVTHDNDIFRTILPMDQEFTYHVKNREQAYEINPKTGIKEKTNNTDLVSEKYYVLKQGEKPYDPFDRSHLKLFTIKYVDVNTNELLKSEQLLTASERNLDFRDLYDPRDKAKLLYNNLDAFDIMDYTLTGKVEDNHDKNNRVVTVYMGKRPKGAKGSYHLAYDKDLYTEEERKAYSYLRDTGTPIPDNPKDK

Streptococcus = assay: Group A Streptococcus viability loss, dose response, counter-screen for streptokinase expression inhibitor project, luminescence, BacTiterGlo (AID 1915); type: functional, organism-based;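 also: potency for reduction of bacterial viability or growth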
[8] = system: Streptococcus sp. 'group A'; assay: growth inhibition of control SK(-) GAS strain, dose response, counter-screen for streptokinase expression inhibitor project, luminescence, kanamycin, BacTiterGlo, confirmation (AID 1900); type: functional, organism-based
[9] = C. albicans growth with fluconazole, confirmation, fluorescence, retest (AID 2467); type: functional, cell-based
[10] = NIH-3T3 fibroblast cytotoxicity, dose response, cytotoxicity control, cell-based, fluorescence, Alamar Blue, secondary assay (AID 2327); type: functional;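 also: NIH-3T3 mouse fibroblasts cultured with fluconazole at 8 µg/mL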
[11] = inhibitors of intracellular T. cruzi replication, confirmation, NIH3T3 host cells, beta-gal luminescence (AID 2044); type: functional, cell-based;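 also: intracellular parasites grown in NIH/3T3 mouse fibroblasts as host cells; luminescent beta-galactosidase reporter signal from transgenic T. cruzi replicating inside host cells; inhibitors lower the luminescence signal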
[12] = cytotoxicity toward NIH3T3 fibroblasts, dose response, counter-screen, cell-based, ATP luminescence, mouse fibroblasts (AID 2010); type: functional;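 also: cells exposed to compound for about 90 hours before reading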

Cytochrome P450 2D6, sequence (P10635 whole entry): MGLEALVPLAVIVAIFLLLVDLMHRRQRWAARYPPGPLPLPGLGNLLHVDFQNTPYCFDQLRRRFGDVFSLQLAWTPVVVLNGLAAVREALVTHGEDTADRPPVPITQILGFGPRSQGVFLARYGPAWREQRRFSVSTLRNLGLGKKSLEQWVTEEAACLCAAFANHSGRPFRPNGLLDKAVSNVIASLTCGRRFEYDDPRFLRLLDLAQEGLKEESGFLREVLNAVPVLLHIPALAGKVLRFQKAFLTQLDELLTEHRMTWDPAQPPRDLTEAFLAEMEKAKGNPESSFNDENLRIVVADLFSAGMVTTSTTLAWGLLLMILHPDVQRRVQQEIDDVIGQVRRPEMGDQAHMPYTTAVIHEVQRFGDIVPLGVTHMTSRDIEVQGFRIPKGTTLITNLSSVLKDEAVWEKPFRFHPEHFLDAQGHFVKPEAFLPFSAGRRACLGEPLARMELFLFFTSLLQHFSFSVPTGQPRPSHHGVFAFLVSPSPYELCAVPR
Cytochrome P450 2C9, sequence (P11712 whole entry): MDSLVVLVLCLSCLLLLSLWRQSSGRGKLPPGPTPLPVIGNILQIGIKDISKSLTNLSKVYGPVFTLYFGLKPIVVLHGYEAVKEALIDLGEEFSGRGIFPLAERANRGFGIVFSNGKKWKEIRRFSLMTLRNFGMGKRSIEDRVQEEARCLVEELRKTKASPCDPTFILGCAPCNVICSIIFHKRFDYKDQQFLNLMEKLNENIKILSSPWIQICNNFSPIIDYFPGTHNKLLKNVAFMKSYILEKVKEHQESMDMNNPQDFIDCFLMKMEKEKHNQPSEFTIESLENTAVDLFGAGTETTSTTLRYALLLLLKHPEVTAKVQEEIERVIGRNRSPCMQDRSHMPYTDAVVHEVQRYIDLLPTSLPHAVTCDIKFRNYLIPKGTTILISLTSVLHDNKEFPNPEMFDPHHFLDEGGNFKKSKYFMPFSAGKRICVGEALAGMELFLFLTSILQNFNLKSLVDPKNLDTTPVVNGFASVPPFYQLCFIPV

Cc1ccc(CN2CCC(n3nccc3NC(=O)c3ccccc3C)CC2)o1
IC50 (Protein skinhead-1): > 100 µM (inactive)

COc1ccc(C(=O)COC(=O)c2ccccc2O)c(OC)c1
IC50 [1]: 8.26 µM (active)
IC50 [2]: 53.1 µM (active)
IC50 (cells): 36.9 µM (active)
IC50 (Caspase-3): 27.6 µM (active)
IC50 [3]: 13.8 µM (active)

COc1cccc(-c2cc(C(=O)Nc3cccc(O)c3)no2)c1
AC50 (Cytochrome P450 2C9): inconclusive
AC50 [4]: 7.52 µM (active)
AC50 [5]: 8.73 µM (active)
AC50 (Cytochrome P450 2D6): 22.4 µM (inconclusive)
AC50 [6]: 42.3 µM (active)

c1ccc(COc2ccc(OCCCN3CCCC3)cc2)cc1
AC50 [4]: 0.751 µM (active)
AC50 [5]: 1.19 µM (active)
AC50 [6]: > 52 µM (inactive)

Cc1nc(N)sc1C(=O)OCC(C)C
IC50 [7]: > 20 µM (inactive)

O=C1/C(=C/c2cccs2)CCC/C1=C\c1cccs1
EC50 (Streptokinase A): 68.5 µM (active)
IC50 (Protein skinhead-1): 95.2 µM (inactive)
EC50 (Streptococcus): > 150 µM (not active)
EC50 [8]: > 150 µM (not active)

Cc1ccc(NC(=O)c2cc(-c3ccco3)on2)cc1C
IC50 (Protein skinhead-1): > 100 µM (inactive)

C=CCn1c(SCc2ccc(C(=O)Nc3ccccc3)cc2)nnc1-c1ccccc1
AC50 (Cytochrome P450 2D6): 22.4 µM (inconclusive)
EC50 [9]: > 38 µM (not active)
EC50 [10]: > 160 µM (inactive)

Cc1ccc(C(C(=O)NCC2CCCO2)N(C(=O)c2snc(C(N)=O)c2N)c2ccc(C(C)C)cc2)o1 (centres undefined)
IC50 [7]: > 20 µM (inactive)

COc1ccc(-n2nc(C(=O)NCc3cc(OC)ccc3OC)c3c4ccccc4n(C)c3c2=O)cc1
IC50 [7]: > 20 µM (inactive)

N#Cc1cnn(-c2nc(O)c3c4c(sc3n2)CCCC4)c1N
EC50 [9]: 0.131 µM (active)
EC50 [10]: 16.9 µM (active)

COC(=O)C1CCN(C(=O)CN(C)Cc2ccc(C(C)(C)C)cc2)CC1
EC50 [11]: 0.513 µM (active)
EC50 [12]: > 60 µM (not active)
EC50 [9]: 1.43 µM (inconclusive)
EC50 [10]: > 150 µM (inactive)

COc1cccc(NC(=O)CN(C)C(=O)c2cccnc2Nc2cccc(C(F)(F)F)c2)c1
IC50 [7]: > 20 µM (inactive)

c1ccc2c(C[C@@H]3CNCCN3CCCCC3CCCCC3)cccc2c1
IC50 [7]: > 20 µM (inactive)

Clc1ccccc1/C=C/c1ccnc2ccccc12
IC50 (Protein skinhead-1): 67.2 µM (inactive)

CCOC(=O)Nc1cccc2c1-c1ccc([N+](=O)[O-])cc1C2=O
IC50 (Protein skinhead-1): > 100 µM (inactive)

Cc1nc2c(C(=O)NCCC(C)C)cnn2c(O)c1Cc1ccccc1F
EC50 [9]: 4.22 µM (active)
EC50 [10]: > 150 µM (inactive)

CC/C(C)=N/Nc1cccc([N+](=O)[O-])c1
EC50 [9]: > 38 µM (not active)
EC50 [10]: 19.8 µM (active)
